# Results: US5041441A, “Method of chemotherapy using 1-phenyl-2-decanoylamino-3-morpholino-1-propanol” (The Regents of the University of Michigan, priority 1988, dated 1991)
# Tests used:
# [1] = target: T1, glucosyltransferase (microsomes from normal liver) (Mus musculus, UniProt O88693); assay: Glucosyltransferase assay, microsomes from normal liver; type: biochemical
# T1 construct: The microsomes from normal liver (72 μg protein) required 5 μM D-threo-PDMP; from tissue; host or cells: normal liver microsomes, ICR Swiss mice
# T1 sequence (O88693 1-394): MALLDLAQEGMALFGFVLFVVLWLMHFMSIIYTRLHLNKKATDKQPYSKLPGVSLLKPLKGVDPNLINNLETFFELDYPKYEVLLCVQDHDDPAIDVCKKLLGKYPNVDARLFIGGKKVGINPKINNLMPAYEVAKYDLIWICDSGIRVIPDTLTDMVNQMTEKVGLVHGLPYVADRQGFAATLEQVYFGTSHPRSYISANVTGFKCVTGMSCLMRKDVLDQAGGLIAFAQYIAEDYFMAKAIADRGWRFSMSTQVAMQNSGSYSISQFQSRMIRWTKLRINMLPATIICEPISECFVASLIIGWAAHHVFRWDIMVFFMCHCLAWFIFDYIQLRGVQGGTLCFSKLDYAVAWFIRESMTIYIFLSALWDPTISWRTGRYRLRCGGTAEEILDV
# Experimental: Evidence that D-threo-PDMP acts to inhibit GlcCer biosynthesis was provided as follows from assay of glucosyltransferase. Microsomes as source of enzyme were prepared by highspeed centrifugation and stored at -70° C. before use. The incubations were at 37° C. for 30 minutes with microsomes, ATP, liposomal octanoyl sphingosine, UDP-[^3 H]glu, Mg^2+, and dithioerythritol. Microsomes from EATC (0.50 mg protein) required 20 μM PDMP to reduce the glucosyltransferase activity in half. The microsomes from normal liver (72 μg protein) required 5 μM D-threo-PDMP. While the EATC enzyme seems to be less sensitive to the inhibitor, the intraperitoneal concentration of inhibitor is initially very high.
# Our tentative conclusion is that these cells obtain much of their GlcCer from the peritoneum. Thus, the effectiveness of the drug can tentatively be ascribed to a blockage of GlcCer synthesis by both the host and tumor cells.
# [2] = tested on: EATC; assay: Rechallenge of surviving treated mice with EATC; type: in vivo
# Excerpt: Four mice who had survived 63 days post-inoculation were challenged with another 2×10^6 EATC. […] Normal mice of this age, like the younger ones, are readily attacked by EATC. We conclude that the mice have, in effect, been "live-cell vaccinated" with EATC plus PDMP.
# [3] = tested on: EATC; assay: D-threo-PDMP with detergents (Myrj 52 or Pluronic F68) in mice; type: in vivo; conditions: for Number of apparently cured mice at 60 days: 8 mice
# Experimental: Male mice of the ICR (Swiss Hsd) strain from Harlan--Sprague Dawley (Indianapolis, Ind.) were injected intraperitoneal with saline containing 2×10^6 Ehrlich ascites tumor cells (EATC) on day 0. Each cage contained 4 or 5 mice which had been weight matched by a computer program for similar means (about 25 g) and similar standard deviations. Treatment began 24 hours later with intraperitoneal injections of saline or inhibitor, either as the acetate salt or as the hydrochloride salt. The inhibitor was dissolved in 40° C. saline and injected at 10 μl/g body weight. In the case of drugs that were difficult to dissolve, e.g. the hydrochlorides, a non-ionic, low toxicity detergent was included to emulsify the drug, making it suitable for injection. Two cages of mice were assigned to each control or experimental group and fed standard lab chow. In almost all cases, the mice were injected daily for a total of 10 doses.
# Four groups of mice (8 per group) were injected once a day for 10 d with 120 mg/kg of D-threo-PDMP and 60 or 180 mg/kg of Myrj 52 or Pluronic F68. No deaths occurred in these mice by 10 days and, at 60 days, the number of apparently cured mice was 2 and 3 for the two Myrj groups and 1 and 3 for the two Pluronic groups.
structure (smiles),measurement,setting,value
"CCCCCCCCCC(=O)N[C@H](CN1CCOCC1)[C@H](O)c1ccccc1 [D-threo-PDMP, 1-Phenyl-2-Decanoylamino-3-Morpholino-1-Propanol]",IC50,[1],5 µM
same,Survivors developing no EATC after challenge,"[2]; five survivors challenged 135 and 100 days after inoculation, greater than 5 months of observation",four of them developed no EATC
same,Effect of reinoculation with 2×10^6 EATC,"[2]; four mice surviving 63 days post-inoculation, observed greater than 7 months more",no effects of the reinoculation
same,Number of apparently cured mice at 60 days,"[3]; 120 mg/kg for 10 d with Myrj 52, first group (60 mg/kg)",2
same,Number of apparently cured mice at 60 days,"[3]; 120 mg/kg for 10 d with Myrj 52, second group (180 mg/kg)",3
same,Number of apparently cured mice at 60 days,"[3]; 120 mg/kg for 10 d with Pluronic F68, first group (60 mg/kg)",1
same,Number of apparently cured mice at 60 days,"[3]; 120 mg/kg for 10 d with Pluronic F68, second group (180 mg/kg)",3
same,Deaths by 10 days,"[3]; 120 mg/kg once a day for 10 d with 60 or 180 mg/kg of Myrj 52 or Pluronic F68, 8 per group",No deaths
